Measured values published in PMC10799085, “A miniaturized mode-of-action profiling platform enables high throughput characterization of the molecular and cellular dynamics of EZH2 inhibition” (Scientific Reports, 2024).
Where two headings read alike, the source gives them in different places.

Experiments:
PRC2/EZH2+/+ [1] = target: T1, PRC2/EZH2+/+ (Homo sapiens, UniProt Q15910); assay: Equilibrium probe competition assay (ePCA), TR-FRET; format: binding
T1 construct: purchased Active Motif

PRC2/EZH2Y641N [2] = target: T2, PRC2/EZH2Y641N (Homo sapiens, UniProt Q15910, Y641N); assay: as above; format: binding
T2 construct: Synthetic cDNA encoding N-terminal 6His-tagged full length EZH2^Y641N; 6His (N); made in house; host or cells: Sf9 insect cells (baculovirus co-infection)

PRC2/EZH2+/+ [3] = target: T1, PRC2/EZH2+/+; assay: Kinetic probe competition assay (kPCA), TR-FRET; format: binding; settings: for Kd: sheet ePCA&kPCA RT, read-out: Kinetic Kd
Experimental: (§1) Biotinylated PRC2 complexes and the fluorescent probe used in TR-FRET assays were generated as described in the supplementary methods section.
For measurements at 25, 30 and 37 °C, the temperature control functionality of the instrument was used.
TR-FRET kPCA traces were exported via Microsoft Excel to GraphPad Prism, where non-specific signals were subtracted and kinetic association competition traces were fitted to the Motulsky–Mahan model “kinetics of competitive binding” to obtain kon (k3), koff (k4) and KD parameters.

PRC2/EZH2Y641N [4] = target: T2, PRC2/EZH2Y641N; assay: Kinetic probe competition assay (kPCA), TR-FRET; format: binding
Description: as §1

PRC2/EZH2 Y111L = target: T3, PRC2/EZH2 Y111L (Homo sapiens, UniProt Q15910, Y111L); assay: Scintillation proximity assay (SPA) of H3K27 methylation; format: biochemical
T3 construct: N-terminal 6His-tagged full length EZH2^Y641N, EZH2^Y111L; 6His (N); made in house; host or cells: Sf9 insect cells (baculovirus co-infection)
Experimental: (§2) Assay-ready plates containing 50 nl of compound dilutions and DMSO controls were filled with 2.5 µL enzyme solution and pre-incubated for 15 min. […] Experiments were also performed without pre-incubation of enzyme and compounds. In this case, the substrate solution was added before enzyme. The reaction was stopped using 1.6 µg/µl streptavidin beads (Perkin Elmer) and 700 µM of SAM (Perkin Elmer). The plates were sealed with transparent foil.
(§3) For equilibrium binding competition (ePCA) and SPA enzyme inhibition assays, raw data import, quality control, normalization, and curve fitting to a 4-parameter logistic equation for IC50 determination were performed using the Genedata Screener® software (Genedata AG). ePCA Ki values were either calculated using the Cheng-Prussof equation[68] or with the GraphPad Prism model “One-site—Fit Ki”.

PRC2/EZH2+/+ [5] = target: T1, PRC2/EZH2+/+; assay: as above; format: biochemical
Experimental: as §2, §3

PRC2/EZH2Y111D = target: T4, PRC2/EZH2Y111D (Homo sapiens, UniProt Q15910, Y111D); assay: as above; format: biochemical
T4 construct: N-terminal 6His-tagged full length EZH2^Y641N, EZH2^Y111L, EZH2^Y111D; 6His (N); made in house; host or cells: Sf9 insect cells (baculovirus co-infection)
Experimental: as §2, §3

PRC2/EZH2Y641N [6] = target: T2, PRC2/EZH2Y641N; assay: as above; format: biochemical
Experimental: as §2, §3

KARPAS-422 cells = assay: Cellular proliferation assay (AlamarBlue, 144 h); format: cell-based; settings: Homo sapiens; KARPAS-422 cells, 6-day (144 h), AlamarBlue; read-out: KARPAS (6-day) Anti-proliferation IC50
Experimental: Cell viability was determined by means of the AlamarBlue® reagent (Thermo Fisher Scientific) following instructions from the manufacturer. […] Anti-proliferative IC50s were calculated by fitting the normalized AlamarBlue® fluorescence values to a 4-parameter logistic equation using the Electronic Notebook (ELN) software from IDBS.

in vitro = in vitro ADME; settings: human, Caco-2, pH 7.2, 2 µM, 2 h, 37 °C
[7] = EZH2Y641N (- H3K27me3), sheet ePCA&kPCA RT

Question: Which results are given for `CCCc1cc(C)[nH]c(=O)c1CNC(=O)c1cc(-c2ccc(N3CCN(C(C)C)CC3)nc2)cc2c1cnn2C(C)C` [Compound 9, UNC1999]?
Answer: Ki (PRC2/EZH2+/+ [1]; EZH2+/+ (+ H3K27me3), sheet ePCA&kPCA RT, read-out: Equilibrium Ki): 1.14 nM; Ki (PRC2/EZH2+/+ [1]; EZH2+/+ (- H3K27me3), 5 °C, read-out: Ki (Equilibrium)): 1.92 nM; Ki (PRC2/EZH2+/+ [1]; EZH2+/+ (- H3K27me3), 15 °C, read-out: Ki (Equilibrium)): 1.6 nM; Ki (PRC2/EZH2+/+ [1]; EZH2+/+ (- H3K27me3), 30 °C, read-out: Ki (Equilibrium)): 8.06 nM; Ki (PRC2/EZH2+/+ [1]; EZH2+/+ (- H3K27me3), 37 °C, read-out: Ki (Equilibrium)): 9.47 nM; Ki (PRC2/EZH2+/+ [1]; EZH2+/+ (- H3K27me3), sheet ePCA&kPCA RT, read-out: Equilibrium Ki): 2.83 nM; Ki (PRC2/EZH2+/+ [1]; wild type EZH2, absence of H3K27me3 peptide, read-out: Ki): 2.8 ± 0.9 nM; Ki (PRC2/EZH2+/+ [1]; wild type EZH2, saturating concentrations of H3K27me3 peptide, read-out: Ki): 1.1 ± 0.5 nM; Ki (PRC2/EZH2Y641N [2]; EZH2Y641N (+ H3K27me3), equilibrium, RT sheet): 6.65 nM; Ki (PRC2/EZH2Y641N [2]; [7]): 26.5 nM; Calculated RT (PRC2/EZH2+/+ [3]; EZH2+/+ (+ H3K27me3)): 0.20 h; Kd (PRC2/EZH2+/+ [3]; EZH2+/+ (+ H3K27me3)): 0.54 nM; RT (Calculated) (PRC2/EZH2+/+ [3]; EZH2+/+ (- H3K27me3), 5 °C): 0.341 h; RT (Calculated) (PRC2/EZH2+/+ [3]; EZH2+/+ (- H3K27me3), 15 °C): 0.0983 h; RT (Calculated) (PRC2/EZH2+/+ [3]; EZH2+/+ (- H3K27me3), 30 °C): 0.0171 h; RT (Calculated) (PRC2/EZH2+/+ [3]; EZH2+/+ (- H3K27me3), 37 °C): 0.0129 h; Calculated RT (PRC2/EZH2+/+ [3]; EZH2+/+ (- H3K27me3)): 0.0369 h; Kd (PRC2/EZH2+/+ [3]; EZH2+/+ (- H3K27me3)): 2.39 nM; Calculated RT (PRC2/EZH2Y641N [4]; EZH2Y641N (+ H3K27me3)): 0.07 h; Kd (PRC2/EZH2Y641N [4]; EZH2Y641N (+ H3K27me3), kinetic, RT sheet): 4.56 nM; Calculated RT (PRC2/EZH2Y641N [4]; EZH2Y641N (- H3K27me3)): 0.0242 h; Kd (PRC2/EZH2Y641N [4]; [7]): 35 nM; IC50 (PRC2/EZH2 Y111L; 0' enzyme:inhibitor pre-incubation, read-out: SPA Mean IC50 (M) - 0' enzyme:inhibitor pre-incubation EZH2 Y111L): 3.1e-08 M; IC50 (PRC2/EZH2 Y111L; 15' enzyme:inhibitor pre-incubation, read-out: SPA Mean IC50 (M) - 15' enzyme:inhibitor pre-incubation EZH2 Y111L): 2.2e-08 M; IC50 (PRC2/EZH2 Y111L; 60' enzyme:inhibitor pre-incubation, read-out: SPA Mean IC50 (M) - 60' enzyme:inhibitor pre-incubation EZH2 Y111L): 2.5e-08 M; IC50 (PRC2/EZH2+/+ [5]; 0' enzyme:inhibitor pre-incubation, read-out: SPA Mean IC50 (M) - 0' enzyme:inhibitor pre-incubation EZH2+/+): 5.2e-09 M; IC50 (PRC2/EZH2+/+ [5]; 15' enzyme:inhibitor pre-incubation, read-out: SPA Mean IC50 (M) - 15' enzyme:inhibitor pre-incubation EZH2+/+): 3.7e-09 M; IC50 (PRC2/EZH2+/+ [5]; 60' enzyme:inhibitor pre-incubation, read-out: SPA Mean IC50 (M) - 60' enzyme:inhibitor pre-incubation EZH2+/+): 3.1e-09 M; IC50 (PRC2/EZH2Y111D; 0' enzyme:inhibitor pre-incubation, read-out: SPA Mean IC50 (M) - 0' enzyme:inhibitor pre-incubation EZH2Y111D): 5.9e-06 M; IC50 (PRC2/EZH2Y111D; 15' enzyme:inhibitor pre-incubation, read-out: SPA Mean IC50 (M) - 15' enzyme:inhibitor pre-incubation EZH2Y111D): 4e-06 M; IC50 (PRC2/EZH2Y111D; 60' enzyme:inhibitor pre-incubation, read-out: SPA Mean IC50 (M) - 60' enzyme:inhibitor pre-incubation EZH2Y111D): 3.2e-06 M; IC50 (PRC2/EZH2Y641N [6]; 0' enzyme:inhibitor pre-incubation, read-out: SPA Mean IC50 (M) - 0' enzyme:inhibitor pre-incubation hEZH2Y641N): 3.8e-08 M; IC50 (PRC2/EZH2Y641N [6]; 15' enzyme:inhibitor pre-incubation, read-out: SPA Mean IC50 (M) - 15' enzyme:inhibitor pre-incubation EZH2Y641N): 3.6e-08 M; IC50 (PRC2/EZH2Y641N [6]; 60' enzyme:inhibitor pre-incubation, read-out: SPA Mean IC50 (M) - 60' enzyme:inhibitor pre-incubation EZH2Y641N): 3.2e-08 M; IC50 (KARPAS-422 cells): 630 nM; Papp A→B at 2 h, 2 µM (in vitro; apical to basolateral, read-out: PK Caco-2 Flux Papp A-B (mean)): 0.314 ×10⁻⁶ cm/s; Papp B→A at 2 h, 2 µM (in vitro; basolateral to apical, read-out: PK Caco-2 Flux Papp B-A (mean)): 12.6 ×10⁻⁶ cm/s
